SMILES strings stand for the structures.

IC50 data for 16 molecules are collected here from patent US9115092B2, “Substituted quinazoline and pyrido-pyrimidine derivatives” (Asana Biosciences, LLC, priority 2010, dated 2015).

Assay [1] addresses T1, PI3Kα (wild-type), P110/P85α (Homo sapiens, UniProt P42336).
T1 construct: made in house; host or cells: SF9 insect cells
The experiment in a line: PI3 Kinase TR-FRET assay, PI3Kα (wild-type). Format: biochemical. The procedure, abridged:
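TR-FRET read-out of PIP3 formation via biotin-PIP3 displacement (665/615 nm ratio) gave IC50 curves. Enzyme: 5 ng wild-type P110/P85α from Sf9 cells, 60 min RT with compound and PIP2 (MgCl2 40 mM, DTT 5 mM), then 30 min RT kinase reaction at 10 μM ATP and 10 μM PIP2.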

The target in the next assay is T2, mTOR kinase (Homo sapiens, UniProt P42345).
T2 construct: purchased Millipore, USA
The assay is described as follows: mTOR kinase TR-FRET assay. To be noted: read-out: mTO R. Format: biochemical. The procedure, abridged: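 TR-FRET read-out (340 nm excitation, 615/665 nm emission) of Thr389 phosphorylation of a ULight-labeled p70 S6K peptide (50 nM) by mTOR, 20 μM ATP, 60 min room temperature after 60 min compound preincubation. Buffer HEPES pH 7.5 with MnCl2, EGTA; IC50 by sigmoidal dose-response.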

For assay [2], the system named is pS6RP(S235/236), PC3 cells. The assay is described as follows: In-cell Western assay, pS6RP(S235/236) in PC3 cells. The class given is cell-based, human. The procedure:
Cells from human prostate cancer cell line PC3 (American Type Culture Collection (ATCC), Manassas, Va. 20108 USA) were seeded at an optimal density of 22,000 cell/well in 96-well plates containing Ham's F12K medium (90 μL) and incubated overnight. The compound dilutions were carried out in 100% DMSO followed by a dilution in the medium. Test compounds were added in serial dilutions to the wells and incubated for 2 h. The cells were washed and fixed with 4% paraformaldehyde. After incubation at room temperature for 1 h in the dark, blocking was done for 2 h at room temperature. Primary antibodies for phosphorylated (p) AKT(5473) (phosphorylated at serine 473), pAKT(T308) (phosphorylated at threonine 308) and for pS6RP(S235/236) (phosphorylated at serine 235/236) (commercially available from Cell Signaling Technology®, whose protocol was followed for the in-cell western assay, were diluted to the required concentration and added to the corresponding wells followed by overnight incubation at 4° C. Eu-labeled rabbit (PE) (Perkin-Elmer USA catalog #AD0106) secondary antibody was added and incubated for 2 h at room temperature. Delfia® enhancement solution (cat #1244-105, Perkin Elmer USA) was subsequently added to the plate before taking the reading at 615 nm with excitation wavelength of 340 nm, after which 0.5 μg/mL of Hoechst® 33258 dye (Catalog #86140-5, Sigma) was added to the plate and fluorescence emission was read at 460 nm with 355 nm excitation, to evaluate the correction factor. IC50 values were calculated using a sigmoidal dose-response curve fit in GraphPad Prism® v5 software.

For the next assay, the system named is PC3 cells. The assay is described as follows: XTT assay for cell viability, PC3 cells. The class given is cell-based, human. To be noted: Homo sapiens, PC-3, cell viability. The procedure, abridged: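 PC3 cells seeded at 1000 cells/well, grown 24 h, then exposed to serial dilutions of compound for 96 h. Viability read by XTT dye at 37° C, absorbance 465 nm. EC50 from sigmoidal dose-response fit.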

Setting [3] is: Homo sapiens, PC-3, In-cell Western.

T1 sequence (P42336 whole entry): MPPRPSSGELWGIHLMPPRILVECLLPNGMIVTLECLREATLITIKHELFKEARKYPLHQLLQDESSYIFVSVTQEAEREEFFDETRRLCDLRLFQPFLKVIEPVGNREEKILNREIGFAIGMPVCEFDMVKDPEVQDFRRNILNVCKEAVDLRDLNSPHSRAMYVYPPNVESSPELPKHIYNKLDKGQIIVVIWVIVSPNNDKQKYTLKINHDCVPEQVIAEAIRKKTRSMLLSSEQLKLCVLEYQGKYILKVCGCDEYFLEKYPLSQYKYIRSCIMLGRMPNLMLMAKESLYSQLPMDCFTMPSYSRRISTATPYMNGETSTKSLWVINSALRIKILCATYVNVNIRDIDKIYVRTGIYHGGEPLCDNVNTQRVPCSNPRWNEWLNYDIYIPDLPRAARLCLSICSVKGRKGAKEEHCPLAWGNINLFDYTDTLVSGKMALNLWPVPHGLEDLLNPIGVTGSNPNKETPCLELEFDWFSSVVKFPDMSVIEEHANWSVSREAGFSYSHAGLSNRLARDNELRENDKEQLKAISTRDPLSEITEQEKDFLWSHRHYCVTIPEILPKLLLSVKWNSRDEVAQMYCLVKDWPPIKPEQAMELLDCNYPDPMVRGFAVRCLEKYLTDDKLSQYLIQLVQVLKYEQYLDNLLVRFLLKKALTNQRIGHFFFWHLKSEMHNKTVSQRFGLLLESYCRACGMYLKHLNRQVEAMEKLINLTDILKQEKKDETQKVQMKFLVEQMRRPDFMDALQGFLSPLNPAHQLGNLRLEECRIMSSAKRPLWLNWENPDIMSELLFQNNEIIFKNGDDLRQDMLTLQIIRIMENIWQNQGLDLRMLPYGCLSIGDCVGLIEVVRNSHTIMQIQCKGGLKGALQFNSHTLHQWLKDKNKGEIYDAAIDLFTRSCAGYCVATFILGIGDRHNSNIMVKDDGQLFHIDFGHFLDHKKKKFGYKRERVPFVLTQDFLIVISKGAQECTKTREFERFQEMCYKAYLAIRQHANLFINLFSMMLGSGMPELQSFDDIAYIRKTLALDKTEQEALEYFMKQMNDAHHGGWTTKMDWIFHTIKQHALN
T1 sequence (P27986 whole entry partner): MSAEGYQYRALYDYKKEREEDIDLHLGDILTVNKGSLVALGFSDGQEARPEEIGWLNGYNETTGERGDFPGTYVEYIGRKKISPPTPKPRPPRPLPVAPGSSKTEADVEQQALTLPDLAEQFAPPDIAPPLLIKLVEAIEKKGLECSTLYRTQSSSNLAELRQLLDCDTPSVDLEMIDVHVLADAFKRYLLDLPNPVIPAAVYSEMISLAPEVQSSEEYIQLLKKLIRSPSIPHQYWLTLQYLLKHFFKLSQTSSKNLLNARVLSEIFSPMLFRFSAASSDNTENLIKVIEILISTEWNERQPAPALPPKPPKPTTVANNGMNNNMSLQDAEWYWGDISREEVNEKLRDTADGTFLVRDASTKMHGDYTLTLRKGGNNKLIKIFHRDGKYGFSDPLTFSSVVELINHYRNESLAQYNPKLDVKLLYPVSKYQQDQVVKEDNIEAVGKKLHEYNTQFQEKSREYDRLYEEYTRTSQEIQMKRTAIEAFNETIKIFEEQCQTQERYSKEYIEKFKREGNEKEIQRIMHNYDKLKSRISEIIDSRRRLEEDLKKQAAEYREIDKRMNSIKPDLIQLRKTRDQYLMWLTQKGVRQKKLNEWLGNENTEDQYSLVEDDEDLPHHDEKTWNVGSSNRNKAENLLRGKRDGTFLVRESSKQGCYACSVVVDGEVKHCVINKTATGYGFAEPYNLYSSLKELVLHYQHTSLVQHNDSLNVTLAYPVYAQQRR

On to `CN(C)C1CCN(C(=O)c2ccc(NC(=O)Nc3ccc(-c4nc(N5CCOCC5)c5ncc(-c6cnn(C)c6)cc5n4)cc3)cc2)C1` (stereo in doubt) [Example 185, (S)-1-(4-(3-(dimethylamino)pyrrolidine-1-carbonyl)phenyl)-3-(4-(7-(1-methyl-1H-pyrazol-4-yl)-4-morpholino-pyrido[3,2-d]pyrimidin-2-yl)phenyl)urea], for which the IC50 in assay [1] was below 50 nM; on mTOR kinase, below 50 nM; in assay [2] (In-cell Western), 201 to 10000 nM.
As for `CN(C)C1CCN(C(=O)c2ccc(NC(=O)Nc3ccc(-c4nc(N5CCOCC5)c5ccc(-c6cncnc6)cc5n4)cc3)cc2)C1` (stereo in doubt) [Example 188, (S)-1-(4-(3-(dimethylamino)pyrrolidine-1-carbonyl)phenyl)-3-(4-(4-morpholino-7-(pyrimidin-5-yl)quinazolin-2-yl)phenyl)urea], the IC50 in assay [1] is below 50 nM; at mTOR kinase, below 50 nM; in assay [2] (In-cell Western), 201 to 10000 nM.
With `CN(C)C1CCN(C(=O)c2ccc(NC(=O)Nc3ccc(-c4nc(N5CCOCC5)c5cc(F)c(-c6cccnc6)cc5n4)cc3)cc2)C1` (stereo in doubt) [Example 198, (S)-1-(4-(3-(dimethylamino)pyrrolidine-1-carbonyl)phenyl)-3-(4-(6-fluoro-4-morpholino-7-(pyridin-3-yl)quinazolin-2-yl)phenyl)urea], the IC50 in assay [1] was below 50 nM; on mTOR kinase it was below 50 nM; in assay [2] (setting [3]), 201 to 10000 nM; in the assay with PC3 cells, 201 to 10000 nM.
With `CN(C)C1CCN(C(=O)c2ccc(NC(=O)Nc3ccc(-c4nc(N5CCOCC5)c5ncc(-c6cncnc6)cc5n4)cc3)cc2)C1` (stereo in doubt) [Example 199, (S)-1-(4-(3-(dimethylamino)pyrrolidine-1-carbonyl)phenyl)-3-(4-(4-morpholino-7-(pyrimidin-5-yl)pyrido[3,2-d]pyrimidin-2-yl)phenyl)urea], the IC50 in assay [1] is below 50 nM; on mTOR kinase, below 50 nM; in assay [2] (setting [3]), 201 to 10000 nM; with PC3 cells, 201 to 10000 nM.
Take `CN(C)C1CCN(C(=O)c2ccc(NC(=O)Nc3ccc(-c4nc(N5CCOCC5)c5ccc(-c6cncnc6)cc5n4)cc3F)cc2)C1` (stereo in doubt) [Example 207, (S)-1-(4-(3-(dimethylamino)pyrrolidine-1-carbonyl)phenyl)-3-(2-fluoro-4-(4-morpholino-7-(pyrimidin-5-yl)quinazolin-2-yl)phenyl)urea]: the IC50 in assay [1] was below 50 nM; at mTOR kinase it was below 50 nM; in assay [2] (setting [3]), 201 to 10000 nM; in the assay on PC3 cells, below 100 nM.
On to `NC1CCN(C(=O)c2ccc(NC(=O)Nc3ccc(-c4nc(N5CCOCC5)c5ccc(-c6cncnc6)cc5n4)cc3F)cc2)C1` (stereo in doubt) [Example 208, (S)-1-(4-(3-aminopyrrolidine-1-carbonyl)phenyl)-3-(2-fluoro-4-(4-morpholino-7-(pyrimidin-5-yl)quinazolin-2-yl)phenyl)urea], for which the IC50 in assay [1] is below 50 nM; on mTOR kinase, below 50 nM; in assay [2] (setting [3]), 201 to 10000 nM; in the assay with PC3 cells, 201 to 10000 nM.
Take `CN(C)C1CCN(C(=O)c2ccc(NC(=O)Nc3ccc(-c4nc(N5CCOCC5)c5ncc(-c6cnn(C)c6)cc5n4)cc3F)cc2)C1` (stereo in doubt) [Example 210, (S)-1-(4-(3-(dimethylamino)pyrrolidine-1-carbonyl)phenyl)-3-(2-fluoro-4-(7-(1-methyl-1H-pyrazol-4-yl)-4-morpholino-pyrido[3,2-d]pyrimidin-2-yl)phenyl)urea]: the results for the IC50 (in assay [1]; on mTOR kinase; in assay [2] (In-cell Western)) were below 50 nM, below 50 nM and 201 to 10000 nM, respectively.
Take `CN(C)C1CCN(C(=O)c2ccc(NC(=O)Nc3ccc(-c4nc(N5CCOCC5)c5ncc(-c6cccnc6F)cc5n4)cc3F)cc2)C1` (stereo in doubt) [Example 213, (S)-1-(4-(3-(dimethylamino)pyrrolidine-1-carbonyl)phenyl)-3-(2-fluoro-4-(7-(2-fluoropyridin-3-yl)-4-morpholino-pyrido[3,2-d]pyrimidin-2-yl)phenyl)urea]: the IC50 in assay [1] is below 50 nM; on mTOR kinase, below 50 nM; in assay [2] (setting [3]), 201 to 10000 nM; in the assay with PC3 cells it was 201 to 10000 nM.
On to `Cc1noc(C)c1-c1ccc2c(N3CCOCC3)nc(-c3ccc(NC(=O)Nc4ccc(C(=O)N5CCC(N(C)C)C5)cc4)cc3)nc2c1` (stereo in doubt) [Example 220, (S)-1-(4-(3-(dimethylamino)pyrrolidine-1-carbonyl)phenyl)-3-(4-(7-(3,5-dimethylisoxazol-4-yl)-4-morpholino-quinazolin-2-yl)phenyl)urea], for which the IC50 is 50 to 200 nM in assay [1], below 50 nM on mTOR kinase, 201 to 10000 nM in assay [2] (setting [3]) and 201 to 10000 nM with PC3 cells.
Regarding `CN(C)C1CCN(C(=O)c2ccc(NC(=O)Nc3ccc(-c4nc(N5CCOCC5)c5ccc(C(C)(C)O)cc5n4)cc3)cc2)C1` (stereo in doubt) [Example 289, (S)-1-(4-(3-(dimethylamino)pyrrolidine-1-carbonyl)phenyl)-3-(4-(7-(2-hydroxypropan-2-yl)-4-morpholino-quinazolin-2-yl)phenyl)urea], the IC50 in assay [1] was 50 to 200 nM; on mTOR kinase, below 50 nM; in assay [2] (setting [3]), 201 to 10000 nM; with PC3 cells, 201 to 10000 nM.
As for `CN(C)C(=O)c1ccc(NC(=O)Nc2ccc(-c3nc(N4CCOCC4)c4ccc(C(C)(C)O)cc4n3)cc2)cc1` [Example 16, 4-(3-(4-(7-(2-hydroxypropan-2-yl)-4-morpholino-quinazolin-2-yl)phenyl)ureido)-N,N-dimethyl-benzamide], the IC50 is below 50 nM in assay [1], below 50 nM on mTOR kinase, 201 to 10000 nM in assay [2] (setting [3]) and 201 to 10000 nM in the assay on PC3 cells.
Consider `CN(C)C(=O)c1ccc(NC(=O)Nc2ccc(-c3nc(N4CCOCC4)c4cccc(-c5cccnc5F)c4n3)cc2)cc1` [Example 40, 4-(3-{4-[8-(2-fluoro-pyridin-3-yl)-4-morpholin-4-yl-quinazolin-2-yl]-phenyl}-ureido)-N,N-dimethyl-benzamide], for which the IC50 in assay [1] was 50 to 200 nM; on mTOR kinase, below 50 nM; in assay [2] (setting [3]) it was below 100 nM; in the assay with PC3 cells it was 100 to 500 nM.
For `CN(C)C(=O)c1ccc(NC(=O)Nc2ccc(-c3nc(N4CCOCC4)c4ccc(-c5cccc(O)c5)cc4n3)cc2)cc1` [Example 41, 4-(3-{4-[7-(3-hydroxy-phenyl)-4-morpholin-4-yl-quinazolin-2-yl]-phenyl}-ureido)-N,N-dimethyl-benzamide], in that order: below 50 nM, 50 to 200 nM, below 100 nM and 100 to 500 nM.
With `Cc1ccc(-c2ccc3c(N4CCOCC4)nc(-c4ccc(NC(=O)Nc5ccc(C(=O)N6CC[C@@H](N(C)C)C6)cc5)cc4)nc3c2)o1` [Example 196, (R)-1-(4-(3-(dimethylamino)pyrrolidine-1-carbonyl)phenyl)-3-(4-(7-(5-methylfuran-2-yl)-4-morpholino-quinazolin-2-yl)phenyl)urea], the IC50 in assay [1] is 50 to 200 nM; at mTOR kinase it was below 50 nM; in assay [2] (setting [3]) it was below 100 nM.
With `CN(C)[C@@H]1CCN(C(=O)c2ccc(NC(=O)Nc3ccc(-c4nc(N5CCOCC5)c5cc(F)c(-c6cccnc6)cc5n4)cc3)cc2)C1` [Example 200, (R)-1-(4-(3-(dimethylamino)pyrrolidine-1-carbonyl)phenyl)-3-(4-(6-fluoro-4-morpholino-7-(pyridin-3-yl)quinazolin-2-yl)phenyl)urea], the IC50 in assay [1] is below 50 nM; at mTOR kinase it was below 50 nM; in assay [2] (In-cell Western) it was 201 to 10000 nM.
With `N[C@@H]1CCN(C(=O)c2ccc(NC(=O)Nc3ccc(-c4nc(N5CCOCC5)c5ccc(-c6cncnc6)cc5n4)cc3F)cc2)C1` [Example 209, (R)-1-(4-(3-aminopyrrolidine-1-carbonyl)phenyl)-3-(2-fluoro-4-(4-morpholino-7-(pyrimidin-5-yl)quinazolin-2-yl)phenyl)urea], the figures for the IC50 (in assay [1]; at mTOR kinase; in assay [2] (In-cell Western)) were below 50 nM, below 50 nM and 201 to 10000 nM, respectively.
